Test results reported in patent US10670605B2, “Cysteine reactive probes and uses thereof” (The Scripps Research Institute, priority 2015, dated 2020).

Tests used:
Assay in all cases: Competitive isoTOP-ABPP, cell lysates;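 for isoTOP-ABPP reactivity profile ratio, P68036 C86: Heavy/light ratio DMSO over fragment-treated so higher means more cysteine engagement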
Type in all cases: binding
[1] = molecular target: XPO1 C34 (O14980) (Homo sapiens, UniProt O14980); details: 500 μm
[2] = molecular target: T1, PCK2 C306 (Q16822) (Homo sapiens, UniProt Q16822); details: 500 μm
T1 sequence (Q16822 33-640): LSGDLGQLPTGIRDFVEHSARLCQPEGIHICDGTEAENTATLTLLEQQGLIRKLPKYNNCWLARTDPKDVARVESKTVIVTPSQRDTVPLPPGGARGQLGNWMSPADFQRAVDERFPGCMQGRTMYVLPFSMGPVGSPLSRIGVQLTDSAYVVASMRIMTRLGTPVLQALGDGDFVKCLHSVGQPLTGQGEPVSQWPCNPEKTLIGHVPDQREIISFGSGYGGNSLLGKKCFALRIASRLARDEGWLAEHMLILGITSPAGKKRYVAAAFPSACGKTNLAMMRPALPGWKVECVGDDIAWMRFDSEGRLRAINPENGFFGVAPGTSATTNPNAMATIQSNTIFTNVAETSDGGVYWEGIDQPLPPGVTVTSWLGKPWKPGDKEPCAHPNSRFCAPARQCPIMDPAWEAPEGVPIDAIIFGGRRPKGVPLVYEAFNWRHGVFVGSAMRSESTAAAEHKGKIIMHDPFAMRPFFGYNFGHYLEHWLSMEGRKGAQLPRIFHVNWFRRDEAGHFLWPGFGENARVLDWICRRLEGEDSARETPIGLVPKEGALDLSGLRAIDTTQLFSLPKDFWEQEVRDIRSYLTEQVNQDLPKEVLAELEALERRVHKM

[3] = molecular target: T2, USP22 C171 (Q9UPT9) (Homo sapiens, UniProt Q9UPT9); details: 500 μm
T2 sequence (Q9UPT9 1-525): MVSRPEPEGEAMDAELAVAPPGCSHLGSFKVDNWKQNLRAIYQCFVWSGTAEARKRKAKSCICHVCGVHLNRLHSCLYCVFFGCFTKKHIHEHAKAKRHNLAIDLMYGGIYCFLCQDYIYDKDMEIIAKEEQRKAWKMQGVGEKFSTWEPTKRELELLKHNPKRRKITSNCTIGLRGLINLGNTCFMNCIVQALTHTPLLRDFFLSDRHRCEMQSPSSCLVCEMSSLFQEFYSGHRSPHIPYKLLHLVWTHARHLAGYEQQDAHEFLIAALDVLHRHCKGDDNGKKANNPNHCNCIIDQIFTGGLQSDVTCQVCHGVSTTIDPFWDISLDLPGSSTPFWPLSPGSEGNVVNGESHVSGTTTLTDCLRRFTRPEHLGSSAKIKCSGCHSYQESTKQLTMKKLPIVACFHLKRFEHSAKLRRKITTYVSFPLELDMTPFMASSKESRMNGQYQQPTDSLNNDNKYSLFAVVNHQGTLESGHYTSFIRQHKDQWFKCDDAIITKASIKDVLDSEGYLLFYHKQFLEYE

[4] = molecular target: ZNF217 C286 (O75362) (Homo sapiens, UniProt O75362); details: 500 μm
[5] = molecular target: UBE2L3 C86 (P68036) (Homo sapiens, UniProt P68036); details: 500 μm;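 for isoTOP-ABPP reactivity profile ratio, P68036 C86: Heavy/light ratio DMSO over fragment-treated so higher means more cysteine engagement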
[6] = molecular target: T3, IDH2 C308 (P48735) (Homo sapiens, UniProt P48735); details: 500 μm, in-vitro_ramos_231
T3 sequence (P48735 40-452): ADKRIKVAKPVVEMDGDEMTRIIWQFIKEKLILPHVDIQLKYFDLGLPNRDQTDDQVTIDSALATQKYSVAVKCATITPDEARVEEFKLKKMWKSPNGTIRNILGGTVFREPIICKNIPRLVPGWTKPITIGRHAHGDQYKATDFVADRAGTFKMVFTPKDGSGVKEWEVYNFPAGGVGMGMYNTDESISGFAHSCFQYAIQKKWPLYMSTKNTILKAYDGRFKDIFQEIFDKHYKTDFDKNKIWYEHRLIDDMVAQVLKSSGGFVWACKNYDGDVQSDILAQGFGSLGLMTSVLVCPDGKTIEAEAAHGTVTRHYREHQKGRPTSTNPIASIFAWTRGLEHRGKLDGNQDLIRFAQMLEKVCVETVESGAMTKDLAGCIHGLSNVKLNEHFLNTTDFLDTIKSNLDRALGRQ

| Structure (SMILES) | isoTOP-ABPP reactivity ratio, O14980_C34 ([1]; in-vitro_ramos) | isoTOP-ABPP reactivity ratio, O14980_C34 ([1]; in-vitro_ramos_231) | isoTOP-ABPP reactivity profile ratio, O14980_C34 ([1]; in-vitro_ramos) | isoTOP-ABPP reactivity profile ratio, P68036_C86 ([5]; in-vitro_ramos) | isoTOP-ABPP reactivity profile ratio, O14980_C34 ([1]; in-vitro_ramos_231) | isoTOP-ABPP reactivity profile ratio, O75362_C286 ([4]; in-vitro_ramos_231) | isoTOP-ABPP reactivity profile ratio, Q16822_C306 ([2]; in-vitro_ramos_231) | isoTOP-ABPP reactivity profile ratio, P48735_C308 [6] | also measured |
| --- | --- | --- | --- | --- | --- | --- | --- | --- | --- |
| O=C(CCl)N(Cc1ccc(F)cc1)C12CC3CC(CC(C3)C1)C2 [compound 34] | 1.1 | 0.8 | – | – | – | – | – | – | – |
| O=C(CCl)Nc1ccccc1C1CCCCCC1 [compound 35] | 1.3 | 0.8 | – | – | – | – | – | – | isoTOP-ABPP reactivity ratio, Q16822_C306 ([2]; in-vitro_ramos): 1.0; isoTOP-ABPP reactivity ratio, Q16822_C306 ([2]; in-vitro_ramos_231): 0.9; isoTOP-ABPP reactivity ratio, Q9UPT9_C171 ([3]; in-vitro_ramos): 1.5 |
| C=CC(=O)N1CCC(c2noc3ccc(F)cc23)CC1 [compound 37] | 0.9 | – | – | – | – | – | – | – | isoTOP-ABPP reactivity ratio, O75362_C286 ([4]; in-vitro_ramos): 0.9; isoTOP-ABPP reactivity ratio, Q16822_C306 ([2]; in-vitro_ramos): 1.0 |
| C=CC(=O)Nc1cc(C)c(Br)cc1C [compound 40] | 1.1 | 0.8 | – | – | – | – | – | – | isoTOP-ABPP reactivity ratio, P68036_C86 ([5]; in-vitro_ramos): 0.9; isoTOP-ABPP reactivity ratio, P68036_C86 ([5]; in-vitro_ramos_231): 0.8 |
| Cc1ccc(C=C(C#N)C(=O)NCCN2CCOCC2)cc1 [compound 41] | 2.0 | 3.1 | – | – | – | – | – | – | isoTOP-ABPP reactivity ratio, O75362_C286 ([4]; in-vitro_ramos): 0.6; isoTOP-ABPP reactivity ratio, Q16822_C306 ([2]; in-vitro_ramos): 1.0; isoTOP-ABPP reactivity ratio, Q16822_C306 ([2]; in-vitro_ramos_231): 1.2; isoTOP-ABPP reactivity ratio, Q9UPT9_C171 ([3]; in-vitro_ramos): 1.4; isoTOP-ABPP reactivity ratio, Q9UPT9_C171 ([3]; in-vitro_ramos_231): 3.0; isoTOP-ABPP reactivity ratio, P68036_C86 ([5]; in-vitro_ramos): 7.9; isoTOP-ABPP reactivity ratio, P68036_C86 ([5]; in-vitro_ramos_231): 9.8 |
| N#CC(=Cc1ccc(-c2ccccc2Cl)o1)C(N)=O [compound 42] | – | – | 0.9 | 0.8 | – | – | – | – | isoTOP-ABPP reactivity profile ratio, O75362_C286 ([4]; in-vitro_ramos): 1.0; isoTOP-ABPP reactivity profile ratio, Q16822_C306 ([2]; in-vitro_ramos): 0.8; isoTOP-ABPP reactivity profile ratio, Q9UPT9_C171 ([3]; in-vitro_ramos): 1.0 |
| CC1CCc2ccccc2N1C(=O)CCl (stereo not shown) [compound 45] | – | – | – | – | 1.8 | 20.0 | 3.3 | 1.0 | – |
| C=CC(=O)N(c1ccccc1)C1CCCCC1 [compound 46] | – | – | – | – | 1.0 | 0.9 | 0.9 | 0.2 | isoTOP-ABPP reactivity profile ratio, P68036_C86 ([5]; in-vitro_ramos_231): 1.2 |
| O=C(CCl)N1CCc2cc(Br)ccc21 [compound 50] | – | – | – | – | 1.2 | – | 2.7 | 2.2 | – |
| O=C(CCl)Nc1cccc2ncccc12 [compound 51] | – | – | 1.0 | 1.0 | 0.9 | 0.9 | – | – | isoTOP-ABPP reactivity profile ratio, O75362_C286 ([4]; in-vitro_ramos): 20.0; isoTOP-ABPP reactivity profile ratio, Q16822_C306 ([2]; in-vitro_ramos): 0.8 |
| O=C(CCl)Nc1ccc(-c2ccccc2)cc1 [compound 52] | – | – | 1.1 | 1.3 | 1.0 | 1.0 | 1.3 | 1.1 | isoTOP-ABPP reactivity profile ratio, Q16822_C306 ([2]; in-vitro_ramos): 1.6; isoTOP-ABPP reactivity profile ratio, P68036_C86 ([5]; in-vitro_ramos_231): 0.8 |
| C=CC(=O)N1CCC(Cc2ccccc2)CC1 [compound 53] | – | – | 1.0 | 1.0 | 0.9 | 1.1 | 1.3 | 0.5 | isoTOP-ABPP reactivity profile ratio, P68036_C86 ([5]; in-vitro_ramos_231): 1.0 |
